This is an account of results in patent publication US7999002B2, “Use of N-(dibenz(b,f)oxepin-10-ylmethyl)-N-methyl-N-prop-2-ynylamine (omigapil) or a pharmaceutically acceptable addition salt thereof for the prophylaxis and/or treatment of muscular dystrophy” (Santhera Pharmaceuticals (Schweiz) AG, priority 2005, dated 2011).

Assay [1] concerns the target glyceraldehyde-3-phosphate dehydrogenase (GAPDH) (Homo sapiens, UniProt P04406). The conditions noted are these: reported in J. Biol. Chem. 273:5821-5828; cited from earlier work.
The test system of assay [2] is homozygous dy^W/dy^W mice deficient in laminin-α2 expression. The assay can be described thus: Skeletal muscle apoptosis (TUNEL) in Triceps muscle (FIG. 3). The conditions noted are these: dy^W/dy^W mice at 6 weeks of age, 0.1 mg/kg. Format: in vivo, mouse. The procedure:
The effect of N-(dibenz(b,f)oxepin-10-ylmethyl)-N-methyl-N-prop-2-ynylammonium maleate (omigapil) on skeletal muscle apoptosis was tested in a mouse model for MDC1A deficient in laminin-α2 expression. Starting at day fifteen, homozygous dy^W/dy^W mice were treated with omigapil. The number of apoptotic myonuclei were analyzed and compared to the number of apoptotic myonuclei determined in homozygous dy^W/dy^W mice treated with vehicle only and to the number of apoptotic myonuclei determined in untreated wild-type mice. For this, omigapil was given to dy^W/dy^W-mice at a dose of 0.1 mg/kg body weight according to the treatment regime described in example 1. […]
Newborn dy^W/dy^W mice were genotyped and randomly assigned to the vehicle or omigapil group. The apoptotic myonuclei in the Triceps foreleg muscle were determined by counting muscle fibers positively stained for Terminal dUTP nick end labeling (TUNEL). […] The relative number of apoptotic myofibres was calculated by dividing the number of TUNEL positive myonuclei by the total number of myofibres. 7 animals were analyzed per treatment group. 1.1% of the myofibers in the Triceps muscle of the vehicle-treated dy^W/dy^W mice had apoptotic myonuclei at 6 weeks of age while only 0.7% apoptotic myofibres were detected in the omigapil-treated group. […]

The test system is the same in assay [3]. The assay can be described thus: Muscle fiber size distribution in Triceps muscle (FIG. 4). Format: in vivo, mouse. The conditions noted are these: dy^W/dy^W mice at 6 weeks of age, 0.1 mg/kg; vehicle 8%; p-value<0.05. The protocol:
The effect of N-(dibenz(b,f)oxepin-10-ylmethyl)-N-methyl-N-prop-2-ynylammonium maleate (omigapil) on muscle fiber size distribution was tested in a mouse model for MDC1A deficient in laminin-α2 expression. Muscle fiber diameters were analyzed in Triceps muscle of 6 weeks old dy^W/dy^W mice treated with 0.1 mg/kg body weight omigapil or with vehicle only. The treatment regime was as described in example 1.
It can be concluded from this increase in large diameter myofibers that omigapil improves muscle histology in an animal model for muscular dystrophy caused by laminin α2-deficiency.
Newborn dy^W/dy^W mice were genotyped and randomly assigned to the vehicle or omigapil group. The myofiber diameters were measured following methods known to the skilled artist (Briguet, A., Courdier-Fruh, I., Foster, M., Meier, T., Magyar, J. P. (2004)—“Histological parameters for the quantitative assessment of muscular dystrophy in the mdx-mouse”, Neuromuscul Disord 14(10): 675-82). For each muscle all muscle fibers of one cross section were included into the analysis. 7 animals were analyzed per treatment group. 8% of the myofibers in the Triceps muscle of the vehicle-treated dy^W/dy^W mice had muscle diameters above 50 micrometers at 6 weeks of age while 15% of myofibres in the omigapil-treated group fulfilled this criteria. Asterisk: p-value<0.05.

The test system is the same in assay [4]. The assay can be described thus: Voluntary exploratory locomotory activity in a new cage (FIG. 6). Format: in vivo, mouse. To be noted: dy^W/dy^W mice at 6 weeks of age; for locomotory activity in the 10-minute test period: vehicle 236 seconds, p-value<0.05. The procedure:
The therapeutically relevant effect of N-(dibenz(b,f)oxepin-10-ylmethyl)-N-methyl-N-prop-2-ynylammonium maleate (omigapil) on the voluntary locomotion was tested in a mouse model for MDC1A deficient in laminin-α2 expression. Starting at day fifteen, homozygous dy^W/dy^W mice were treated with omigapil at doses of 0.1 or 1 mg/kg body weight. Their individual exploratory locomotory activity was assessed at 6 weeks of age and compared to age-matched dy^W/dy^W mice treated with vehicle only. The treatment regime was as described in example 1.
It can be concluded that omigapil increases locomotory activity in an animal model for muscular dystrophy caused by laminin α2-deficiency.
Newborn dy^W/dy^W mice were genotyped and randomly assigned to the vehicle or the 0.1 and 1 mg/kg omigapil groups. The voluntary locomotory activity was measured within the first 10 minutes after having placed the animal in a new cage. […] The difference in activity is statistically significant for both omigapil treatments (asterisk: p-value<0.05). In total 13, 15 and 10 animals were included into the vehicle, the 0.1 and the 1 mg/kg omigapil group, respectively.

Assay [5] shares this test system. Kind of assay: Skeletal deformation (kyphosis) by X-ray analysis and visual scoring (FIG. 5). Type of assay: in vivo, mouse. To be noted: dy^W/dy^W mice at 11 weeks of age, 1 mg/kg; example animal; vehicle 66°. The protocol:
The beneficial and therapeutically relevant effect of N-(dibenz(b,f)oxepin-10-ylmethyl)-N-methyl-N-prop-2-ynylammonium maleate (omigapil) on the skeletal deformation (i.e. kyphosis) was tested in a mouse model for MDC1A deficient in laminin-α2 expression. For this, homozygous dy^W/dy^W mice were treated with omigapil (at a dose of 1 mg/kg body weight) and their kyphosis was scored at 11 weeks of age by visual inspection and X-ray analysis and compared to the extent of kyphosis seen in homozygous dy^W/dy^W mice treated with vehicle only and untreated wildtype mice. The treatment regime was as described in example 1.
Spinal deformation was documented by X-ray pictures of an age-matched wild-type mouse (A), a vehicle-treated (B) and an 1 mg/kg omigapil-treated dy^W/dy^W mouse (C). The kyphosis was quantified in living animals using a visual scoring system (1: barely detectable, 2: mild, 3: moderate, 4: severe) (D). 9 vehicle- and 7 omigapil-treated animals were analyzed.

The test system is the same in assay [6]. Kind of assay: Body weight gain in mouse model for MDC1A (FIG. 2). Type of assay: in vivo. The conditions noted are these: vehicle maximally 11%. The procedure:
Example 2 describes the therapeutically relevant effect of N-(dibenz(b,f)oxepin-10-ylmethyl)-N-methyl-N-prop-2-ynylammonium maleate (omigapil) on the body weight gain in a mouse model for MDC1A deficient in laminin-α2 expression. Starting at day fifteen, homozygous dy^W/dy^W mice were treated with omigapil. Their individual body weights were assessed daily and compared to homozygous dy^W/dy^W mice treated with vehicle only (control group). For this, omigapil was given to dy^W/dy^W-mice at doses of 0.1 or 1 mg/kg body weight, respectively. The treatment regime was as described in example 1.
Newborn dy^W/dy^W mice were genotyped and randomly assigned to the vehicle or the 0.1 and 1 mg/kg omigapil groups. The individual body weights were assessed daily and the mean body weight were calculated every week. The percentage of mice above an average body weight of twelve grams is shown grouped according to age (between 6 and 11 weeks) for each treatment group. In total 27, 34 and 25 animals were included into the vehicle, the 0.1 and the 1 mg/kg omigapil group, respectively.

Assay [7] has the same test system. Kind of assay: Survival rate in mouse model for MDC1A (Kaplan-Meier, FIG. 1). Type of assay: in vivo. To be noted: 0.1 mg/kg once daily (i.p., then gavage from 4th week), 1 out of 13 animals, vehicle 6 out of 15 (=40%). The protocol:
The effect of N-(dibenz(b,f)oxepin-10-ylmethyl)-N-methyl-N-prop-2-ynylammonium maleate (omigapil) on the survival rate was tested in a mouse model for MDC1A deficient in laminin-α2 expression. Starting at day fifteen, homozygous dy^W/dy^W mice were treated with omigapil. Their survival rate was compared to homozygous dy^W/dy^W mice treated with vehicle only. For this, omigapil was dissolved in 0.5% w/v ethanol to a final concentration of 20 μg/ml. The treatment regime was as follows: omigapil (20 μg/ml in 0.5% ethanol) was applied to 3 week old dy^W/dy^W-mice by intraperitoneal (i.p.) injection once per day; from the 4th week of age onwards mice received the same concentration of omigapil once per day by gavage feeding instead of i.p. application. The final dose of omigapil given to dy^W/dy^W-mice at all times was 0.1 mg/kg body weight, once daily following the guidance as described elsewhere (Sagot Y. et al. (2000)—An orally active anti-apoptotic molecule (CGP 3466B) preserves mitochondria and enhances survival in an animal model of motoneuron disease. Br. J. Pharmacol. 131:721-728). Control mice received the equivalent amount of vehicle only. […]

Chain of glyceraldehyde-3-phosphate dehydrogenase (GAPDH) (P04406 whole entry, species assumed): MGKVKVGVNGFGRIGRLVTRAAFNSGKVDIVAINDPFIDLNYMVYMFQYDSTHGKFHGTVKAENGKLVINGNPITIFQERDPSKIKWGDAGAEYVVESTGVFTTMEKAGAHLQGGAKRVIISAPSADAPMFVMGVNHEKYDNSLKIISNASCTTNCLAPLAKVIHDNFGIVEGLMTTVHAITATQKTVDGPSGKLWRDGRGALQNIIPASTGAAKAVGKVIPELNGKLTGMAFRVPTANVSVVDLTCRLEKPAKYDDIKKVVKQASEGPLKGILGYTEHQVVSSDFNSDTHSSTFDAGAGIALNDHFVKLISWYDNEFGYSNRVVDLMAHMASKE

Regarding `C#CCN(C)CC1=Cc2ccccc2Oc2ccccc21` [compound of formula (I), N-(dibenz(b,f)oxepin-10-ylmethyl)-N-methyl-N-prop-2-ynylamine], the “binding to GAPDH” value in assay [1] is listed as “binds to glyceraldehyde-3-phosphate dehydrogenase (GAPDH)”.

Turning to “N-(dibenz(b,f)oxepin-10-ylmethyl)-N-methyl-N-prop-2-ynylammonium maleate [omigapil]”, the “reduction in apoptotic myofibres compared to vehicle” value in assay [2] (Triceps muscle) turned out to be 35%. Further, the “apoptotic myofibres in the Triceps muscle (TUNEL)” value in assay [2] (vehicle 1.1%) came out at 0.7%. In addition, the “myofibres with muscle fiber diameters above 50 micrometers in the Triceps muscle” value in assay [3] is 15%. Besides, the “increase in locomotory activity compared to vehicle group” value in assay [4] (0.1 mg/kg) is given as 39%; in assay [4] (1 mg/kg), 26%. For the same compound, the “locomotory activity in the 10-minute test period” value in assay [4] (0.1 mg/kg) is reported as 330 seconds; in assay [4] (1 mg/kg) it was 301 seconds. Besides, in assay [5], the “angle spanned by the spine (kyphosis, X-ray)” value came to 89 °. Further, the “percentage of mice that reached a body weight above 12 grams within the first 11 weeks of age” value in assay [6] (0.1 mg/kg omigapil) is reported as 25%; in assay [6] (1 mg/kg omigapil), 43%. The “animals died within the first 80 days of age” value in assay [7] is listed as 8%.
